Measurements reported in patent publication US10947216B2, “Amide compounds and method for making and using” (Rigel Pharmaceuticals, Inc., priority 2016, dated 2021).
Structures can show the parent of a compound that is named as a salt.

What follows are compounds tested on IL-23p19 (assay: LPS Induced IL23p19 in THP-1 Cells (with IFNγ Primed) Assay). Settings: Homo sapiens, THP-1, THP-1 cells, IFNγ (50 ng/mL) primed, 1 hour compound pre-incubation, LPS 1 ug/mL 18 hours, 10 pt; read-out: IL23-p19 ELISA, THP1-IFNy, LPS, 10 pt EC50.
Assay type: cell-based, human
Protocol: LPS Induced IL23p19 in THP-1 Cells (with IFNγ Primed) Assay
Method THP-1 Cells Stimulation:
On day 1, 50K/well THP-1 cells were seeded and primed with IFNγ (50 ng/mL) in 384-well plates for about 18 hours in RPMI media with 10% FBS. […] 50 μL/well 2× compound was added to 50 μL/well THP-1 cells (with IFNγ primed) in duplicate in 384 well tissue culture plates. […] Day 3, after stimulation for 18 hours at 37° C., 5% CO2, the assay plate was centrifuged and 70 μL/well supernatant was harvested. IL-23p19 protein in 70 μL/well of supernatant was measured by sandwich ELISA, and 25 μl/well Cell Titer Glo reagent was added to the remaining cells to measure compound toxicity.
Human IL-23p19 Sandwich ELISA:
Maxisorp immuno ELISA plates were pre-coated with 25 μL/well of anti-IL-23p19 capture antibody (2.5 ug/mL) in PBS overnight at room temperature. After washing with 1×PBST, the plates were blocked using 100 μL/well of 1% BSA in PBS for 2 hours at room temperature. The plates were washed three times with 1×PBST and 70 μL/well supernatant were added. The plates were incubated at room temperature for 2 hours with shaking and washed three times with 1×PBST. 25 μL/well of biotin labeled anti-IL-12(p40/p70) detection antibody (100 ng/mL) in PBS with 1% BSA was added and the plates were incubated at room temperature for 2 hours with shaking. After washing three times with 1×PBST, 25 μL/well of streptavidin-HRP (1:200) in PBS with 1% BSA was added and the plates were incubated at room temperature for 20 minutes with shaking. The plates were washed three times with 1×PBST and 25 μL/well of Super Signal ELISA Pico Chemiluminescent Substrate were added. The plates were read with a luminometer, and the chemiluminescence values were entered into Athena (Rigel) for curve fitting, EC50 calculation, and database storage.

EC50 [µM]	SMILES
40.1	Cn1cc(NC(=O)c2cccc(-c3cncnc3)n2)c(-c2ccccn2)n1 [Compound I-5, N-(1-methyl-3-(pyridin-2-yl)-1H-pyrazol-4-yl)-6-(pyrimidin-5-yl)picolinamide]
3.46	Cn1cc(NC(=O)c2cccc(-c3cnc4cc[nH]c4c3)n2)c(-c2ccccn2)n1 [Compound I-45, N-(1-methyl-3-(pyridin-2-yl)-1H-pyrazol-4-yl)-6-(1H-pyrrolo[3,2-b]pyridin-6-yl)picolinamide]
116	Cn1cc(NC(=O)c2cccc(-c3ccnc(C(N)=O)c3)n2)c(-c2ccccn2)n1 [Compound I-41, N6-(1-methyl-3-(pyridin-2-yl)-1H-pyrazol-4-yl)-[2,4-bipyridine]-2′,6-dicarboxamide]
21.5	Cn1cc(NC(=O)c2cccc(-c3cncc(F)c3)n2)c(-c2ccccn2)n1 [Compound I-3, 5′-fluoro-N-(1-methyl-3-(pyridin-2-yl)-1H-pyrazol-4-yl)-[2,3′-bipyridine]-6-carboxamide]
1.52	Cn1cc(NC(=O)c2cccc(-c3cncc(C(C)(C)O)c3)n2)c(-c2ccccn2)n1 [Compound I-14, 5′-(2-hydroxypropan-2-yl)-N-(1-methyl-3-(pyridin-2-yl)-1H-pyrazol-4-yl)-[2,3′-bipyridine]-6-carboxamide]
1900	Cn1cc(NC(=O)c2cccc(-c3cncc(C#N)c3)n2)c(-c2ccccn2)n1 [Compound I-4, 5′-cyano-N-(1-methyl-3-(pyridin-2-yl)-1H-pyrazol-4-yl)-[2,3′-bipyridine]-6-carboxamide]
72.1	Cc1cccc(-c2cccc(C(=O)Nc3cn(C)nc3-c3ccccn3)n2)c1 [Compound I-49, N-(1-methyl-3-(pyridin-2-yl)-1H-pyrazol-4-yl)-6-(m-tolyl)picolinamide]
2.21	COc1ccc(-c2nn(C)cc2NC(=O)c2cccc(-c3cncc(OC(C)C)c3)n2)nc1 [Compound I-70, 5′-isopropoxy-N-(3-(5-methoxypyridin-2-yl)-1-methyl-1H-pyrazol-4-yl)-[2,3′-bipyridine]-6-carboxamide]
101	Cn1cc(NC(=O)c2cccc(-c3cncc(OCC(F)(F)F)c3)n2)c(-c2ccccn2)n1 [Compound I-24, N-(1-methyl-3-(pyridin-2-yl)-1H-pyrazol-4-yl)-5′-(2,2,2-trifluoroethoxy)-[2,3′-bipyridine]-6-carboxamide]
128	COc1ccc(-c2cccc(C(=O)Nc3cn(C)nc3-c3ccccn3)n2)cn1 [Compound I-20, 6′-methoxy-N-(1-methyl-3-(pyridin-2-yl)-1H-pyrazol-4-yl)-[2,3′-bipyridine]-6-carboxamide]

Further lines, the compound ahead of its results:

SMILES	EC50 [µM]
Cn1cc(NC(=O)c2cccc(-c3ccnc(NCC4CC4)c3)n2)c(-c2ccccn2)n1 [Compound I-159, 2′-((cyclopropylmethyl)amino)-N-(1-methyl-3-(pyridin-2-yl)-1H-pyrazol-4-yl)-[2,4′-bipyridine]-6-carboxamide formate]	14.7
CNc1cccc(-c2cccc(C(=O)Nc3cn(C)nc3-c3ccccn3)n2)c1 [Compound I-58, N-(1-methyl-3-(pyridin-2-yl)-1H-pyrazol-4-yl)-6-(3-(methylamino)phenyl)picolinamide]	15.2
COCCOCCn1cc(NC(=O)c2cccc(-c3ccncc3C)n2)c(-c2ccccn2)n1 [Compound I-145, N-(1-(2-(2-methoxyethoxy)ethyl)-3-(pyridin-2-yl)-1H-pyrazol-4-yl)-3′-methyl-[2,4′-bipyridine]-6-carboxamide formate]	56.9
COCCOCCn1cc(NC(=O)c2cccc(-c3ccncc3F)n2)c(-c2ccccn2)n1 [Compound I-144, 3′-fluoro-N-(1-(2-(2-methoxyethoxy)ethyl)-3-(pyridin-2-yl)-1H-pyrazol-4-yl)-[2,4′-bipyridine]-6-carboxamide formate]	11.5
CCN(CC)CCn1cc(NC(=O)c2cccc(-c3ccncc3)n2)c(-c2ccccn2)n1 [Compound I-104, N-(1-(2-(diethylamino)ethyl)-3-(pyridin-2-yl)-1H-pyrazol-4-yl)-[2,4′-bipyridine]-6-carboxamide]	74.1
Cn1cc(NC(=O)c2cccc(-c3cccc(N)c3)n2)c(-c2ccccn2)n1 [Compound I-57, 6-(3-aminophenyl)-N-(1-methyl-3-(pyridin-2-yl)-1H-pyrazol-4-yl)picolinamide]	5.27
Cn1cc(NC(=O)c2cncc(-c3cnn(CC4CC4)c3)c2)c(-c2ccccn2)n1 [Compound I-109, 5-(1-(cyclopropylmethyl)-1H-pyrazol-4-yl)-N-(1-methyl-3-(pyridin-2-yl)-1H-pyrazol-4-yl)nicotinamide]	10.8
Cn1cc(NC(=O)c2cccc(-c3ccc[nH]3)n2)c(-c2ccccn2)n1 [Compound I-10, N-(1-methyl-3-(pyridin-2-yl)-1H-pyrazol-4-yl)-6-(1H-pyrrol-2-yl)picolinamide]	655
Cn1cc(NC(=O)c2cccc(-c3cccc(NS(C)(=O)=O)c3)n2)c(-c2ccccn2)n1 [Compound I-60, N-(1-methyl-3-(pyridin-2-yl)-1H-pyrazol-4-yl)-6-(3-(methylsulfonamido)phenyl)picolinamide]	14.8
Cn1cc(NC(=O)c2nccc(Nc3cc[nH]n3)n2)c(-c2ccccn2)n1 [Compound I-128, 4-((1H-pyrazol-3-yl)amino)-N-(1-methyl-3-(pyridin-2-yl)-1H-pyrazol-4-yl)pyrimidine-2-carboxamide]	24.2
Cc1n[nH]cc1Nc1ccnc(C(=O)Nc2cn(C)nc2-c2ccccn2)n1 [Compound I-129, 4-((3-methyl-1H-pyrazol-4-yl)amino)-N-(1-methyl-3-(pyridin-2-yl)-1H-pyrazol-4-yl)pyrimidine-2-carboxamide]	72.9
Cn1cc(NC(=O)c2cccc(-c3ccc4[nH]ccc4c3)n2)c(-c2ccccn2)n1 [Compound I-46, 6-(1H-indol-5-yl)-N-(1-methyl-3-(pyridin-2-yl)-1H-pyrazol-4-yl)picolinamide]	3.5
O=C(Nc1cn(C(CO)CO)nc1-c1ccccn1)c1cccc(-c2cn[nH]c2)n1 [Compound I-127, N-(1-(1,3-dihydroxypropan-2-yl)-3-(pyridin-2-yl)-1H-pyrazol-4-yl)-6-(1H-pyrazol-4-yl)picolinamide]	18.2
COCCn1cc(NC(=O)c2cccc(-c3ccncc3)n2)c(-c2ccccn2)n1 [Compound I-107, N-(1-(2-methoxyethyl)-3-(pyridin-2-yl)-1H-pyrazol-4-yl)-[2,4′-bipyridine]-6-carboxamide formate]	3.58
O=C(O)c1cncc(-c2cccc(C(=O)Nc3cn(C4COC4)nc3-c3ccccn3)n2)c1 [Compound I-135, 6-((1-(oxetan-3-yl)-3-(pyridin-2-yl)-1H-pyrazol-4-yl)carbamoyl)-[2,3′-bipyridine]-5′-carboxylic acid]	41.7
COCCOCCn1cc(NC(=O)c2cccc(-c3ccncc3)n2)c(-c2ccccn2)n1 [Compound I-140, N-(1-(2-(2-methoxyethoxy)ethyl)-3-(pyridin-2-yl)-1H-pyrazol-4-yl)-[2,4′-bipyridine]-6-carboxamide formate]	10.9

Same assay, conditions: THP-1 cells, IFNγ (50 ng/mL) primed, 1 hour compound pre-incubation, LPS 1 ug/mL 18 hours, 10 pt; dihydrochloride; read-out: IL23-p19 ELISA, THP1-IFNy, LPS, 10 pt EC50

SMILES	EC50 [µM]
Cc1cncc(-c2cccc(C(=O)Nc3cn(C)nc3-c3ccc(N4CCOCC4)cn3)n2)c1 [Compound I-176, 5′-methyl-N-(1-methyl-3-(5-morpholinopyridin-2-yl)-1H-pyrazol-4-yl)-[2,3′-bipyridine]-6-carboxamide dihydrochloride]	27.9
